The source of these data is the NIST ThermoML archive (doi:10.1021/acs.jced.7b01011).

The nature of data set [1]: Molar enthalpy of transition or fusion. The settings on record: Crystal; DSC.
The conditions of data set [2]: Crystal; DTA.

Numbers after ± are expanded uncertainties.

In the case of `Cc1ccc(NC(=O)/C(=C/Cl)Sc2ccccc2)cc1` [(Z)-3-chloro-2-phenylthio-N-(p-tolyl)acrylamide], in data set [1], the “Molar enthalpy of transition or fusion” value was determined as 25.8 ± 0.97 kJ/mol. Besides, the Normal melting temperature in data set [2] was 108.00 ± 1.1 °C.
